Reference: patent EP2061765B1, “Serine-threonine protein kinase and PARP modulators” (Senhwa Biosciences, Inc., priority 2006, dated 2008)

How the values were obtained:
Assay in all cases: Cell proliferation assay (Alamar Blue)
Type in all cases: cell-based
MDAMB231 = settings: Homo sapiens, MDA-MB-231, 96 h, MDAMB231 cells, four days
Protocol: (§1) A representative cell-proliferation assay protocol using Alamar Blue dye (stored at 4°C, use 20ul per well) is described hereafter. 96-well plate setup and compound treatment • a. Split and trypsinize cells. • b. Count cells using hemocytometer. • c. Plate 4,000-5,000 cells per well in 100 µl of medium and seed into a 96-well plate according to the following plate layout. Add cell culture medium only to wells B10 to B12. Wells B1 to B9 have cells but no compound added. [formula] [formula] • d. Add 100 µl of 2X drug dilution to each well in a concentration shown in the plate layout above. At the same time, add 100 µl of media into the control wells (wells B10 to B12). Total volume is 200 µl/well. • e. Incubate four (4) days at 37°C, 5% CO2 in a humidified incubator. • f. Add 20µl Alamar Blue reagent to each well. • g. Incubate for four (4) hours at 37°C, 5% CO2 in a humidified incubator. • h. Record fluorescence at an excitation wavelength of 544nm and emission wavelength of 590nm using a microplate reader.
(§2) In the assays, cells are cultured with a test compound for approximately four days, the dye then is added to the cells and fluorescence of […] dye is detected after approximately four hours. Different types of cells can be utilized in the assays (e.g., HCT-116 human colorectal carcinoma cells, PC-3 human prostatic cancer cells and MiaPaca human pancreatic carcinoma cells). Anti-proliferative effects of representative compounds are provided hereafter.

Jurkat = settings: Homo sapiens, 96 h, Jurkat cells, four days
Protocol: as §1, §2

MiaPaCa = settings: Homo sapiens, MIA PaCa-2, 96 h, MiaPaCa cells, four days
Protocol: as §1, §2

HCT-116 = settings: Homo sapiens, 96 h, HCT-116 cells, four days

| Structure (SMILES) | IC50 (MDAMB231) [µM] | IC50 (Jurkat) [µM] | IC50 (MiaPaCa) [µM] | IC50 (HCT-116) [µM] |
| --- | --- | --- | --- | --- |
| C#Cc1cccc(Nc2nc3cc(C(=O)O)ccc3c3cnc(NC4CC4)nc23)c1 [drawing 398] | 4.9 | – | – | – |
| O=C(O)c1ccc2c(c1)nc(Nc1ccccc1)c1nc(NC3CC3)ncc12 [drawing 389] | 0.73 | – | – | – |
| O=C(O)c1ccc2c(c1)nc(Nc1ccccc1)c1nc(NC3CCNCC3)ncc12 [drawing 394] | > 50 | – | – | – |
| COCCNc1ncc2c(n1)c(Nc1ccccc1)nc1cc(C(=O)O)ccc12 [drawing 391] | 24.4 | – | – | – |
| O=C(O)c1ccc2c(c1)nc(Nc1ccc(F)c(Cl)c1)c1ncncc12 [drawing 374] | 1.11 | – | – | – |
| CCCNc1ncc2c(n1)c(Nc1ccccc1)nc1cc(C(=O)O)ccc12 [drawing 390] | 18.2 | – | – | – |
| O=C(O)c1ccc2c(c1)nc(Nc1ccccc1)c1nc(NCCCO)ncc12 [drawing 393] | 48.2 | – | – | – |
| CCN(CC)CCNc1ncc2c(n1)c(Nc1ccccc1)nc1cc(C(=O)O)ccc12 [drawing 395] | 10.5 | – | – | – |
| CC(C)Nc1ncc2c(n1)c(Nc1cccc(Cl)c1)nc1cc(C(=O)O)ccc12 [drawing 340] | – | 18.4 | 5.45 | > 10 |
| O=C(O)c1ccc2c(c1)nc(Nc1cccc(Cl)c1)c1nc(NC3CC3)ncc12 [drawing 334] | – | 1.29 | 0.47 | 7.82 |
| O=C(O)c1ccc2c(c1)nc(Nc1cccc(C(F)(F)F)c1)c1ccncc12 [drawing 357] | – | 3.15 | 8.55 | 5.14 |
| O=C(O)c1ccc2c(c1)nc(Nc1ccc(F)c(Cl)c1)c1nc(NCc3ccccn3)ncc12 [drawing 362] | – | 2.59 | 8.21 | > 10 |
| COC(=O)c1ccc2c(c1)nc(Nc1cccc(Cl)c1)c1nc(NCCC(N)=O)ncc12 [drawing 353] | – | 4.41 | 17.1 | > 10 |
| C#Cc1cccc(Nc2nc3cc(C(=O)OC)ccc3c3cnc(NOC)nc23)c1 [drawing 352] | – | 27 | > 50 | > 10 |
| O=C(O)c1ccc2c(c1)nc(Nc1ccc(F)c(Cl)c1)c1nc(NCc3cccnc3)ncc12 [drawing 367] | – | 1.5 | 1.97 | > 10 |
| Cc1ncc2c(n1)c(Nc1cccc(Cl)c1)nc1cc(C(=O)O)ccc12 [drawing 351] | – | 4.95 | 5.39 | > 10 |
| Nc1ncc2c(n1)c(Nc1cccc(Cl)c1)nc1cc(C(=O)O)ccc12 [drawing 339] | – | 1.14 | 0.88 | > 10 |
| O=C(O)c1ccc2c(c1)nc(Nc1ccccc1)c1nc(NC3CCNCC3)ncc12 [drawing 323] | – | 18.9 | 14.4 | > 10 |
| CCCNc1ncc2c(n1)c(Nc1ccccc1)nc1cc(C(=O)O)ccc12 [drawing 319] | – | 4.53 | 2.99 | > 10 |
| O=C(O)c1ccc2c(c1)nc(Nc1ccc(F)c(Cl)c1)c1nc(NC3CC3)ncc12 [drawing 345] | – | 1.54 | 0.37 | > 10 |
| C#Cc1cccc(Nc2nc3cc(C(=O)O)ccc3c3cnc(NC)nc23)c1 [drawing 332] | – | 1.29 | 2.34 | 4.69 |
| O=C(O)c1ccc2c(c1)nc(Nc1ccccc1)c1nc(NCCN3CCOCC3)ncc12 [drawing 325] | – | 5.7 | 1.69 | > 10 |
| C#Cc1cccc(Nc2nc3cc(C(=O)O)ccc3c3cnc(NCCOCC)nc23)c1 [drawing 347] | – | 1.13 | 0.62 | > 10 |

Further lines, results first:

| IC50 (MDAMB231) [µM] | IC50 (Jurkat) [µM] | IC50 (MiaPaCa) [µM] | IC50 (HCT-116) [µM] | Structure (SMILES) |
| --- | --- | --- | --- | --- |
| 13 | – | – | – | O=C(O)c1ccc2c(c1)nc(Nc1cccc(C(F)(F)F)c1)c1ccncc12 [drawing 428] |
| 12.8 | – | – | – | O=C(O)c1ccc2c(c1)nc(Nc1cccc(F)c1)c1nc(NC3CC3)ncc12 [drawing 430] |
| 9.82 | – | – | – | CN(C)c1ncc2c(n1)c(Nc1cccc(Cl)c1)nc1cc(C(=O)O)ccc12 [drawing 409] |
| 7.05 | – | – | – | C#Cc1cccc(Nc2nc3cc(C(=O)O)ccc3c3cnc(NCCCOC(C)C)nc23)c1 [drawing 420] |
| 5.21 | – | – | – | C#Cc1cccc(Nc2nc3cc(C(=O)O)ccc3c3cnc(NC)nc23)c1 [drawing 403] |
| 8.28 | – | – | – | CNc1ncc2c(n1)c(Nc1cccc(Cl)c1)nc1cc(C(=O)O)ccc12 [drawing 408] |
| 39.8 | – | – | – | O=C(NC1CC1)c1ccc2c(c1)nc(Nc1cccc(C(F)(F)F)c1)c1nc(NC3CC3)ncc12 [drawing 436] |
| 27.2 | – | – | – | COC(=O)c1ccc2c(c1)nc(Nc1cccc(Cl)c1)c1nc(NCCC(N)=O)ncc12 [drawing 424] |
| 17.5 | – | – | – | Cc1cccc(Nc2nc3cc(C(=O)O)ccc3c3cnccc23)c1 [drawing 427] |
| 10.4 | – | – | – | C#Cc1cccc(Nc2nc3cc(C(=O)O)ccc3c3cnc(NCCC)nc23)c1 [drawing 399] |
| 4.74 | – | – | – | C#Cc1cccc(Nc2nc3cc(C(=O)O)ccc3c3cnc(NCCOC)nc23)c1 [drawing 400] |
| 5.48 | – | – | – | O=C(O)c1ccc2c(c1)nc(Nc1ccc(F)c(Cl)c1)c1nc(NCc3cccnc3)ncc12 [drawing 438] |
| 12.6 | – | – | – | COCCNc1ncc2c(n1)c(Nc1ccc(F)c(Cl)c1)nc1cc(C(=O)O)ccc12 [drawing 417] |
| 4.12 | – | – | – | Nc1ncc2c(n1)c(Nc1cccc(Cl)c1)nc1cc(C(=O)O)ccc12 [drawing 410] |
| > 50 | – | – | – | C#Cc1cccc(Nc2nc3cc(C(=O)O)ccc3c3cnc(NC4CCNCC4)nc23)c1 [drawing 401] |
| 20.8 | – | – | – | CC(C)Nc1ncc2c(n1)c(Nc1cccc(Cl)c1)nc1cc(C(=O)O)ccc12 [drawing 411] |

| IC50 (MDAMB231) [µM] | IC50 (Jurkat) [µM] | IC50 (MiaPaCa) [µM] | IC50 (HCT-116) [µM] | Structure (SMILES) |
| --- | --- | --- | --- | --- |
| 12.5 | – | – | – | C#Cc1cccc(Nc2nc3cc(C(=O)O)ccc3c3cnc(NCCCN4CCOCC4)nc23)c1 [drawing 402] |
| 9.19 | – | – | – | O=C(O)c1ccc2c(c1)nc(Nc1cccc(C(F)(F)F)c1)c1nc(NC3CC3)ncc12 [drawing 412] |
| > 50 | – | – | – | CN(C)CCNc1ncc2c(n1)c(Nc1ccc(F)c(Cl)c1)nc1cc(C(=O)O)ccc12 [drawing 432] |
| 5.22 | – | – | – | C#Cc1cccc(Nc2nc3cc(C(=O)O)ccc3c3cnc(NCCCOCC)nc23)c1 [drawing 419] |
| 3.93 | – | – | – | O=C(O)c1ccc2c(c1)nc(Nc1cccc(Cl)c1)c1nc(NC3CC3)ncc12 [drawing 405] |
| 19.2 | – | – | – | O=C(O)c1ccc2c(c1)nc(Nc1ccccc1)c1nc(Nc3ccccc3)ncc12 [drawing 440] |
| 2.52 | – | – | – | CCOC(=O)CCNC(=O)c1ccc2c(c1)nc(Nc1cccc(C(F)(F)F)c1)c1nc(NC3CC3)ncc12 [drawing 442] |
| 23 | – | – | – | O=C(O)c1ccc2c(c1)nc(Nc1cc(F)cc(F)c1)c1nc(NC3CC3)ncc12 [drawing 429] |
| 25.4 | – | – | – | COC(CNc1ncc2c(n1)c(Nc1ccc(F)c(Cl)c1)nc1cc(C(=O)O)ccc12)OC [drawing 434] |
| 5.48 | – | – | – | Cc1ncc2c(n1)c(Nc1cccc(Cl)c1)nc1cc(C(=O)O)ccc12 [drawing 422] |
| 20.1 | – | – | – | COc1cccc(Nc2nc3cc(C(=O)O)ccc3c3cnc(NC4CC4)nc23)c1 [drawing 431] |
| 15.8 | – | – | – | CNc1ncc2c(n1)c(Nc1ccc(F)c(Cl)c1)nc1cc(C(=O)O)ccc12 [drawing 414] |
| 2.93 | – | – | – | O=C(O)c1ccc2c(c1)nc(Nc1cccc(C(F)(F)F)c1)c1ncncc12 [drawing 406] |
| > 50 | – | – | – | O=C(O)c1ccc2c(c1)nc(Nc1cccc(Cl)c1)c1nc(O)ncc12 [drawing 421] |
| 4.43 | – | – | – | O=C(O)c1ccc2c(c1)nc(Nc1ccc(Cl)c(C(F)(F)F)c1)c1ccncc12 [drawing 404] |
